The values that follow come from patent publication US11123413B2, “Carbapenemases for use with antibiotics for the protection of the intestinal microbiome” (priority 2015, dated 2021).

Data set [1] in a line: Oral P2A and intravenous meropenem in jejunal-fistulated dogs. The format is in vivo, laboratory beagles. The settings on record: peak level in dog jejunum; meropenem 30 mg/kg IV alone; individual dogs. The protocol:
The ability of P2A to degrade meropenem in the dog intestinal tract was evaluated using laboratory beagles that had permanent jejunal fistulas. The fistulas allowed the repeated collection of jejunal chyme specimens from these animals. Dogs were treated with peroral P2A (1 mg/kg) in a liquid formulation (PBS buffer), and/or intravenous meropenem (30 mg/kg). Serum samples were collected and serum meropenem levels quantified. Jejunal chyme samples were collected and meropenem and P2A levels were quantified. Meropenem levels in serum and chyme were measured using a plate diffusion method using meropenem susceptible Micrococcus luteus TS504 as the test strain. P2A activity levels in chyme were determined spectrophotometrically using meropenem as a substrate. Meropenem hydrolysis was monitored at a wavelength of 297 nm.

For another data set, the system named is gut microbiome. More on the design: species or system Yorkshire piglets. The settings on record: in vivo. As for the experimental part: The animals were treated with ertapenem (30 mg/kg) via intravenous infusion one a day for a total of 7 days.
Two pre-treatment fecal samples were obtained, the first 4 days after the animals arrived at the animal treatment facility (Day −7), and the second 7 days after arrival (Day −4). An additional 3 fecal samples were collected at Day 4, Day 8, and Day 9. The fecal samples were collected using the OMNIgene GUT sample collection kits (OMR-200, DNA Genotek, Ontario, Canada) and stored at room temperature away from light until all samples were collected. DNA isolated from the fecal samples was subjected to deep sequencing of the intestinal microbiome and analyses.
DNA was isolated from the fecal samples and subjected to whole genome shotgun sequencing using an Illumine HiSeq system with a target of 20 million 100 bp single reads per sample. […]
The percent similarity based on the relative bacterial strain abundance was calculated. […] Animals began ertapenem treatment on Day 1 and the percent similarity decreased every day the animals were evaluated. […]
A statistical analysis was performed to determine the probability that the microbiomes before and after antibiotic treatment remained the same or were different. The microbiome sequence data were analyzed using a parameterization of the Dirichlet-Multinomial distribution (La Rosa et al., 2012) to perform a Likelihood Ratio Test. […]

Each structure is given as a SMILES string. Where “and” joins values, the source holds several entries; their conditions need not be identical. Equal values may be shown once.

As to `C[C@@H](O)[C@H]1C(=O)N2C(C(=O)O)=C(S[C@@H]3CN[C@H](C(=O)N(C)C)C3)[C@H](C)[C@H]12` [Meropenem], the “Meropenem” value in data set [1] is 3.0 ug/ml (2×) and 3.2 ug/ml.

For `C[C@@H](O)[C@H]1C(=O)N2C(C(=O)O)=C(S[C@@H]3CN[C@H](C(=O)Nc4cccc(C(=O)O)c4)C3)[C@H](C)[C@H]12` [ertapenem], the “microbiome diversity (percent similarity of strain relative abundance)” value in the data set on gut microbiome is “causes a loss of diversity in the microbiome”.
